# Measurements: paper PMC12730667, “A Scorpion Peptide Exerts Selective Anti-Leukemia Effects Through Disrupting Cell Membranes and Triggering Bax/Bcl-2-Related Apoptosis Pathway” (Biomolecules, 2025)
# Where no end group is shown, it is not given here.
# Experiments:
# [1] = system: 24 distinct cancer cell lines; type: cell-based; details: CCK-8, 5, 10 and 20 μM
# Method: (§1) All cell lines, including CT26.WT, LLC, MV-4-11, HCT-116, ID8, Jurkat, L1210, OVCAR-8, YAC-1, MDA-MB-231, MEL, Mia PaCa-2, B16-F10, HepG2, A549 Hela, 4T1, Panco2, K562, RAJI, A375, HL-60, H1975, HaCat, HUVEC, and HDF, were obtained from the National Collection of Authenticated Cell Cultures (Shanghai, China) or saved in the lab and cultured in RPMI-1640 or DMEM or IMEM medium supplemented with 10% (v/v) fetal bovine serum (FBS), 100 units/mL penicillin, 100 µg/mL streptomycin, and 0.05% (v/v) L-glutamine serum in a humidified atmosphere of 5% CO2 at 37 °C.
# (§2) To determine the effects of Lpep3 on cell cytotoxicity, the Cell Counting Kit-8 (CCK8) assay was performed according to the manufacturer’s protocol. Cells were seeded at 8 × 10^3 cells per well and treated with Lpep3 at different concentrations (100, 50, 25, 12.5, 6.25, 3.125, 1.56, 0.78, 0.39 μM) for 24 h. […] The absorbance at 450 nm was measured using a microplate reader (BioTek, Winooski, VT, USA). […] IC50 values were calculated using non-linear regression analysis of the dose–response curves in GraphPad Prism (8.0.2). The percentage of cellular viability was calculated using the following equation: Cell Viability %=ODSample−ODBlank/ODControl−ODBlank×100%
# To comprehensively characterize the anticancer activity of peptides Lpep1–Lpep7, their cytotoxic effects across 24 distinct cancer cell lines were assessed using CCK-8 assays. […]
# 4T1 cells = type: cell-based; details: 24 h
# Method: as §1
# (§3) To determine the effects of Lpep3 on cell cytotoxicity, the Cell Counting Kit-8 (CCK8) assay was performed according to the manufacturer’s protocol. Cells were seeded at 8 × 10^3 cells per well and treated with Lpep3 at different concentrations (100, 50, 25, 12.5, 6.25, 3.125, 1.56, 0.78, 0.39 μM) for 24 h. Subsequently, 10 μL of CCK8 reagent (Abbkine, Wuhan, China) was added to each well and incubated for 1–4 h at 37 °C. The absorbance at 450 nm was measured using a microplate reader (BioTek, Winooski, VT, USA). The half-maximal inhibitory concentration (IC50) was defined as the peptide concentration required to reduce cell viability by 50% relative to the untreated control. IC50 values were calculated using non-linear regression analysis of the dose–response curves in GraphPad Prism (8.0.2). The percentage of cellular viability was calculated using the following equation: Cell Viability %=ODSample−ODBlank/ODControl−ODBlank×100%
# B16-F10 cells = type: cell-based; details: 24 h
# Method: as §1, §3
# CT26.WT cells = type: cell-based; details: 24 h
# Method: as §1, §3
# H1975 cells = type: cell-based; details: 24 h
# Method: as §1, §3
# HDF cells = type: cell-based; details: 24 h
# Method: as §1, §3
# HUVEC cells = type: cell-based; details: 24 h
# Method: as §1, §3
# HaCaT cells = type: cell-based; details: 24 h
# Method: as §1, §3
# ID8 cells = type: cell-based; details: 24 h
# Method: as §1, §3
# LLC cells = type: cell-based; details: 24 h
# Method: as §1, §3
# Panc02 cells = type: cell-based; details: 24 h
# Method: as §1, §3
# A375 cells = type: cell-based, human; details: 24 h
# Method: as §1, §3
# A549 cells = type: cell-based, human; details: 24 h
# Method: as §1, §3
# HCT116 cells = type: cell-based, human; details: 24 h
# Method: as §1, §3
# HL-60 cells = type: cell-based, human; details: 24 h
# Method: as §1, §3
# HeLa cells = type: cell-based, human; details: 24 h
# Method: as §1, §3
# Hep G2 cells = type: cell-based, human; details: 24 h
# Method: as §1, §3
# Jurkat cells = type: cell-based, human; details: 24 h
# Method: as §1, §3
# K562 cells = type: cell-based, human
# Method: as §1, §3
# MDA-MB-231 cells = type: cell-based, human; details: 24 h
# Method: as §1, §3
# MV-4-11 cells = type: cell-based, human
# Method: as §1, §3
# Mia PaCa-2 cells = type: cell-based, human; details: 24 h
# Method: as §1, §3
# OVCAR-8 cells = type: cell-based, human; details: 24 h
# Method: as §1, §3
# L1210 cells = details: 24 h
# Method: as §1, §3
# MEL cells = details: 24 h
# Method: as §1, §3
# YAC-1 cells = details: 24 h
# Method: as §1, §3
# Primary PBMC = type: cell-based; details: 24 h
# Method: Briefly, fresh anticoagulated whole blood was collected and diluted with 1× PBS buffer at a ratio of 1:1, followed by gentle mixing. Then, an appropriate volume of mononuclear cell separation medium was added to a sterile centrifuge tube, and the diluted blood sample was carefully layered onto the surface of the separation medium (separation medium–diluted whole blood = 1:2) while maintaining a clear interface between the two layers. Then, it was centrifuged at 450× g for 20–30 min at room temperature. After centrifugation, the plasma layer was aspirated and discarded, then the PBMC layer was carefully collected (i.e., the buffy coat) and transferred to a 15 mL centrifuge tube. […] The isolated PBMCs were then ready for subsequent experiments.
# as §2, with “protocol.” for “protocol. Cells were seeded at 8 × 10^3 cells per well and treated with Lpep3 at different concentrations (100, 50, 25, 12.5, 6.25, 3.125, 1.56, 0.78, 0.39 μM) for 24 h.”
# solid tumor cell lines = assay: CCK-8 IC50, solid cancer cell lines as a group; type: cell-based; details: range over hepatocellular, pancreatic, breast, cervical, lung, colorectal, ovarian and melanoma cell lines, CCK-8, 24 h; read-out: IC50 values in solid cancers
# Method: as §3
# Based on the above results, subsequent studies will focus on determining the IC50 of Lpep3 to accurately quantify the intensity of its anticancer activity. […] The ovarian cell was the most sensitive in solid tumor cell lines.
# non-cancer cells = type: cell-based; details: 24 h
# Method: as §3
# The lowest values approached 0.6 μM in MV-4-11. […] Based on this discrepancy, concentrations of 0.5 μM and 1 μM were selected for subsequent experiments.
# red blood cells = assay: Hemolytic activity assay; type: cell-based; details: red blood cells in PBS, 37 °C, 1 h, absorbance 450 nm, 0.1% Triton X-100 as positive control, Figure S2B
# Method: A total of 500 μL fresh whole blood was collected and diluted with 5 mL PBS and then centrifuged at 1000 rpm for 5 min to remove the plasma. The pellet was washed again by adding PBS to a final volume of approximately 10 mL, followed by centrifuging at 1000 rpm for 5 min. This washing step was repeated until the supernatant became clear. The resulting red blood cell pellet was then resuspended in 10 mL PBS. For the hemolysis assay, 200 μL suspension was mixed with 200 μL Lpep3 with different concentrations (100, 50, 25, 12.5, 6.25, 3.125, 1.57, 0.78, 0.39 μM). The positive control consisted of 200 μL suspension mixed with 200 μL 0.1% Triton X-100, while the negative control contained 200 μL RBC suspension and 200 μL PBS. All mixtures were incubated at 37 °C for 1 h, followed by centrifugation at 12,000 rpm for 5 min. The supernatant was collected and measured at 450 nm. The hemolysis rate was calculated using the following equation: Hemolysis rate%=ODSample−ODnegative/ODPositive−ODnagative×100%
# [2] = In vivo biosafety in tumor-bearing nude mice (body weight, blood, liver/kidney function, H&E); set-up: species or system mouse; details: 10 mg/kg i.p. every other day, 6 injections
# Description: Healthy male BALB/c nu/nu nude mice (aged 4–5 weeks) were purchased from Slac & Jingda Laboratory Animal Co., Ltd. (Changsha, China). All animal experiments were strictly approved by the Institutional Animal Care and Use Committee (IACUC) of Hunan Normal University, and the Guidelines for the Care and Use of Laboratory Animals issued by the National Institutes of Health (NIH, Bethesda, MD, USA) were strictly adhered to throughout the experiment. MV-4-11 cells (5 × 10^6 cells resuspended in a 1:1 mixture of Matrigel and PBS) were subcutaneously (s.c.) injected into the right axillary fossa of each mouse. When the tumor volume reached 100–150 mm^3, all mice were randomly divided into two groups (n = 4). Mice in the experimental group were intraperitoneally injected with 50 μL of Lpep3 (10 mg/kg), while those in the control group received an intraperitoneal injection of an equal volume of sterile PBS. The day of the first injection was defined as Day 0. Injections were administered every other day, with a total of 6 administrations. Additionally, the tumor volume and body weight of mice in each group were monitored at regular intervals. After the experiment, major organs were dissected, fixed in 4% paraformaldehyde (PFA), and subjected to histological examination. Major organs were further stained with hematoxylin and eosin (H&E) for pathological analysis.
# After euthanasia, whole blood was collected and allowed to stand at 4 °C for 1 h and then centrifuged at 3000× g for 10 min to obtain serum. Serum biochemical and liver/kidney function parameters, including RBC, NEU, HGB, ALT, AST, BUN, and creatinine, were analyzed using an automated chemistry analyzer (TBA-40FR, Tochigi, Japan) according to the manufacturer’s instructions.
# Raji cells = type: cell-based, human; details: Raji, 5, 10 and 20 μM, CCK-8
# Method: as §1
# as §3, with “Cells were seeded at 8 × 10^3 cells per well and treated with Lpep3 at different concentrations (100, 50, 25, 12.5, 6.25, 3.125, 1.56, 0.78, 0.39 μM) for 24 h.” left out
# [3] = Solubility of the synthesized peptide in PBS and DMSO; type: physicochemical; details: peptide excluded from experimental verification
# Description: Based on the anticancer prediction model CNBT-ACPred established by our team previously, there are 276 toxic animal polypeptides whose average prediction score is greater than 0.73. Then, based on the top prediction scores and species diversity, seven candidate peptides were chosen for subsequent experimental validation (Table 2).
sequence,measurement,setting,value
FFGSLLSLGSKLLPSVFKLFQRKKE [Lpep3],cytotoxic effects across 24 distinct cancer cell lines,[1],"potent, broad-spectrum cytotoxic peptide"
same,IC50,4T1 cells,3.05 µM
same,IC50,B16-F10 cells,11.8 µM
same,IC50,CT26.WT cells,2 µM
same,IC50,H1975 cells,3.04 µM
same,IC50,HDF cells,4.52 µM
same,IC50,HUVEC cells,6.42 µM
same,IC50,HaCaT cells,5.8 µM
same,IC50,ID8 cells,1.99 µM
same,IC50,LLC cells,2.31 µM
same,IC50,Panc02 cells,2.87 µM
same,IC50,A375 cells,2.23 µM
same,cell viability,A375 cells; 5 μM,~0%
same,IC50,A549 cells,2.72 µM
same,IC50,HCT116 cells,3.2 µM
same,IC50,HL-60 cells,1.49 µM
same,IC50,HeLa cells,2.72 µM
same,cell viability,HeLa cells; 5 μM,~0%
same,IC50,Hep G2 cells,6.99 µM
same,IC50,Jurkat cells,0.554 µM
same,cell viability,Jurkat cells; 5 μM,~0%
same,IC50,K562 cells; 24 h,0.656 µM
same,cell viability,"K562 cells; 24 h, 5 μM",~0%
same,IC50,MDA-MB-231 cells,2.32 µM
same,cell viability,MDA-MB-231 cells; 5 μM,~0%
same,IC50,MV-4-11 cells; 24 h,0.6 µM
same,cell viability,"MV-4-11 cells; 24 h, 5 μM",~0%
same,IC50,Mia PaCa-2 cells,5.4 µM
same,IC50,OVCAR-8 cells,1.3 µM
same,cell viability,OVCAR-8 cells; 5 μM,~0%
same,IC50,L1210 cells,2.05 µM
same,IC50,MEL cells,0.563 µM
same,IC50,YAC-1 cells,0.728 µM
same,IC50,Primary PBMC,3.81 µM
same,IC50,solid tumor cell lines,1.3 to 11 µM
same,IC50,non-cancer cells,~5 µM
same,concentration at which a 50% hemolysis rate was observed,red blood cells,12.5 µM
same,"liver and kidney function indices (AST, ALT, UA, CRE)","[2]; n = 4, serum",remained within the normal range
same,"blood routine indices (RBC, HGB, Neu)","[2]; n = 4, vs PBS",no obvious difference
same,body weight,"[2]; n = 4, vs PBS",no obvious difference
same,"H&E staining of liver, spleen and kidney",[2]; vs control group,no obvious damage
"FVQWFSKFLGRIL [Lpep7, 13-residue candidate peptide, species Rana temporaria]",cytotoxic activity,"K562 cells; K562, 5, 10 and 20 μM, CCK-8",moderate activity
same,cytotoxic activity,"MV-4-11 cells; MV-4-11, 5, 10 and 20 μM, CCK-8",moderate activity
same,cytotoxic activity,Raji cells,moderate activity
"GLFDIAKKVIGVIGSL [Lpep4, 16-residue candidate peptide, species Ranoidea raniformis]",solubility in PBS and DMSO,[3],poor solubility
